Series [1] has as its system T. gondii tachyzoites of the RH-GFP strain. As to the kind of experiment: Intracellular Toxoplasma tachyzoites proliferation assay (Assay B). It counts as cell-based, Toxoplasma gondii. The conditions noted are these: 3 h infection, then 24 h treatment at 35.35, 70.70, 176.75 μg/mL; dose-dependent.
Series [2] relates to Human red blood cells (RBCs). As to the kind of experiment: Haemolytic activity determination. It counts as cell-based. The note with it: at the concentration equal to its IC50Tg. Here is the method: (§1) Human red blood cells (RBCs) concentrate was obtained from the Regional Blood Donation and Transfusion Centre (Lublin, Poland). RBCs concentrate (5 mL) was washed three times with sterile PBS and centrifuged at 500 g for 3 min. […] The amount of free haemoglobin in supernatants was measured spectrophotometrically at 405 nm. Negative and positive controls were performed by incubating RBCs with sterile PBS and 0.1% Triton-X, respectively. Each experiment was run in triplicate.

Series [3] can be described thus: Haemolytic activity determination. The class given is cell-based. The conditions noted are these: human RBCs, 37 °C, 30 min, read-out: Haemolysis (%). Here is the method:
as §1

In series [4] the test system is Tyrosinase (TYR) from mushrooms. The series can be described thus: Inhibition of tyrosinase activity assay. It counts as biochemical. The conditions noted are these: for Diphenolase activity: substrate DOPA; for Monophenolase activity: substrate L-tyrosine. As to the method:
Tyrosinase (TYR) from mushrooms ([…], Sigma) was used in our study. We analysed inhibition of 20 b on both monophenolase and diphenolase activity of TYR. All compound dilutions, both substrate L-tyrosine (Tyr) and levodopa (DOPA), and TYR were prepared in 50 mM phosphate buffer (pH 6.5). […] Firstly, the substrate and compound were added to a 96-well flat-bottom plate (Nunc MaxiSorp^TM, Roskilde, Denmark), next TYR was added and the initial absorbance (A0) was measured spectrophotometrically at 492 nm. Then, the plate was incubated at 25 °C for 30 min. After incubation, the amount of dopachrome produced in the reaction mixture was determined spectrophotometrically at 492 nm (A30) using the multi-mode microplate reader SpectraMax® i3. As 100% TYR activity samples without addition of compound, were used. The average results from three experiments are shown.

The next series deals with T. gondii RH-GFP. As to the kind of experiment: Antiparasitic assay: T. gondii RH-GFP proliferation in Hs27 cells. It counts as cell-based, Toxoplasma gondii.
Series [5] deals with T. gondii tachyzoites of the RH-GFP strain. The series can be described thus: Toxoplasma tachyzoites invasion assay (Assay A). The note with it: 3 h pre-treatment at 35.35, 70.70 and 176.75 μg/mL, then 24 h treatment-free.
Procedure: The Hs27 cells were cultured on Lab-Tek™ 4-well Chamber Slides (Nunc) (5 × 10^4 cells/500 μL per well).
Then, the cells were washed to remove extracellular parasites and parasite culture medium (without any compounds) was added for 24 h.
In both assays as the control, Hs27 cells were infected, but not treated. After subsequent 24 h of incubation (Assay A and B), the slides were washed with sterile PBS, fixed with formaldehyde solution (252549, Sigma-Aldrich), 3.7% in PBS for 20 min, and stained with DAPI for 10 min (1 mg/mL, ThermoFisher Scientific, Waltham, MA). Microscopic analysis of 100 cells in turn, comprised of counting the infected cell ratio and tachyzoites per each parasitophorous vacuoles of infected cell, was performed using a fluorescent microscope (Axio Scope.A1, Carl Zeiss, Germany) at a magnification ×1000. For image processing ZEISS ZEN Microscope Software version 3.1 (Oberkochen, Germany) was used. Three independent experiments on triplicate chamber slides using the same conditions for both assays were performed.
Another series is described as follows: PAMPA-BBB assay. It counts as in vitro ADME. Here is the method: BBB permeability of 20b was investigated using a parallel artificial membrane permeability assay (PAMPA) method. The PAMPA system, consisted of a 96-well microfilter plate, was divided into two chambers: a donor at the bottom and an acceptor at the top, separated by a 120-μm-thick microfilter disc coated with BBB lipid solution (Pion, Inc., Billerica, MA). The solutions of 20b were prepared in dimethylsulphoxide (DMSO) at 4 mg/mL concentration and then diluted with Prisma buffer (pH = 7.4) to obtain the donor drug solution with the final nominal concentration of 20 μg/mL. Then, 180 μL of the donor solution were added to the donor wells. Subsequently, each filter membrane of the top plate was coated with 5 μL BBB-1 lipid solution (Pion Inc.) and the acceptor well was filled with 200 μL of Brain Sink Buffer (BSB). The acceptor plate and the donor plate were sandwiched together and incubated at 37 °C for 180 min.
The permeability coefficient value (Pe) was calculated by using the following equation: Pe=−ln(1−CA/Cequilibrium)/S×(1/VD+1/VA)×t where VD – donor volume, VA – acceptor volume, Cequilibrium – equilibrium concentration, Cequilibrium=CD×VD+CA×VA/VD+VA, CD – donor concentration, CA – acceptor concentration, S – membrane area, and t – incubation time (in seconds).
(In PAMPA a lipid-coated filter parts donor from acceptor wells.)

Series [6] is described as follows: Cytotoxicity against glioblastoma cells (MTT). It counts as cell-based, human. The note with it: human, T98G glioblastoma cells, MTT, read-out: Viability of T98G cells (% of control ± SD). As to the method: (§2) Cytotoxic effect of 20b was evaluated using glioblastoma (T98G) cells obtained from the American Type Culture Collection (Manassas, VA). Cells were cultured in Dulbecco’s Modified Eagle’s Medium (DMEM-high glucose) (Sigma Aldrich, St. Louis, MO), supplemented with 10% heat inactivated FBS, penicillin (100 U/mL), and streptomycin (100 μg/mL) (Sigma Aldrich, St. Louis, MO). Cells were maintained in a humidified atmosphere of 5% CO2 and 95% air at 37 °C. Stock solutions of the investigated compounds (20b and temozolomide) were prepared by dissolving solid substances in a sterile DMSO. T98G glioblastoma cells were seeded into 96-well sterile plates at a density of 1 × 10^5cells/mL. After 24 h of incubation, the medium was removed from each well and then cells were incubated for the next 24 h with different concentrations of the investigated compounds (10, 25, 35, 50, and 100 µg/mL) in the medium containing 2% FBS. Viability of T98G cells was evaluated using MTT assay, whose principle is based on the conversion of 3–(4,5-dimethylthiazol-2-yl)-2,5-diphenyltetrazolium bromide (MTT) into dark-blue formazan crystals. In brief, after 24 h incubation of cells with varying concentrations of the tested compounds, culture medium was removed from the plate. Cells were washed with PBS, and then 100 µL of medium containing 10% MTT solution (5 mg/mL) was added to each well. After 3 h incubation, 100 µL (per well) of 10% SDS buffer solution was added to solubilise formazan crystals. After overnight incubation the absorbance was measured at 570 nm using a microplate reader (Epoch, BioTek Instruments, Winooski, VT). Experiments were repeated three times, and the measurements in each experiment were run in quadruplicate. Viability of the investigated cells was expressed as % of the viability of the untreated cells.

Series [7] deals with human glioblastoma T98G cells. As to the kind of experiment: Cytotoxicity against glioblastoma cells (MTT). The class given is cell-based. The note with it: 24 h. As to the method:
as §2

For the next series, the system named is Human Hs27 cells. As to the kind of experiment: Genotoxic activity, single cell gel electrophoresis (comet assay). It counts as cell-based. The note with it: 24 h, concentration equal to IC50Tg.
The mark [8] stands for this setting: 1 µM, % of activity without compound.

Values after ≈ are worked out from the molar mass of the structure shown. “Also recorded” adds a separate entry of the source.

Procedure for Human Hs27 cells: All the procedures performed were in line with the manufacturer’s protocol. Human Hs27 cells, previously exposed for 24 h to the compound, were combined with liquefied low melting Agarose at 37 °C and transferred onto the OxiSelect comet slides. After storing for 15 min at 4 °C, the slides were immersed in a pre-chilled Lysis Buffer (for 45 min at 4 °C) and Alkaline Solution (for 30 min at 4 °C). Afterwards, the Alkaline Solution was replaced with pre-chilled TBE electrophoresis solution. After immersing for 5 min, the slides were put into the horizontal electrophoresis chamber and covered with TBE electrophoresis buffer. The electrophoresis was run for 15 min at 1 volt/cm. Finally, DNA was stained with Vista Green DNA Dye for 15 min at room temperature and observed under fluorescence microscope (Olympus BX63, Tokyo, Japan). The images of cells were captured using XM10 digital camera (Olympus). The DNA damage was measured quantitatively using OpenComet software. At least 50 randomly selected images were used in each analysis.

Usually viability stands for the share of living cells, or the viability signal relative to a control. Take `COc1ccc(-n2c(-c3[nH]cnc3C)n[nH]c2=S)cc1` [20b]: the “intracellular proliferation: size of PV and number of tachyzoites per PV” value in series [1] is “significant reduction in both size of the PV and number of intra vacuolar tachyzoites”. Besides, the haemolytic activity result in series [2] is given as “no specific haemolytic activity; also recorded: no specific haemolytic changes”. In series [3] (2% suspension of human red blood cells, 5 µg/mL), the hemolysis at 30 min, 5 µg/mL was 0.038 ± 0.007%. Moreover, in [3] (2% suspension of human red blood cells, 10 µg/mL), the hemolysis at 30 min, 10 µg/mL stood at 0.104 ± 0.042%. For the same compound, the hemolysis at 30 min, 35 µg/mL in series [3] (2% suspension of human red blood cells, 35 µg/mL) was 0.183 ± 0.086%. In addition, the Diphenolase activity is reported as 94.6 ± 3.3% in series [4] (setting [8]); 99.6 ± 0.7% in series [4] (10 µM); 92.7 ± 1.7% in series [4] (25 µM); 91.2 ± 1.2% in series [4] (50 µM); 75.3 ± 7.8% in [4] (100 µM); 52.7 ± 6.8% in [4] (200 µM). Further, in series [4] (400 µM), the Diphenolase activity was found to be 25.7 ± 12.8%. The Monophenolase activity in series [4] (setting [8]) is recorded as 101.76 ± 4.69%; in [4] (10 µM) it was 99.01 ± 1.79%; in series [4] (25 µM) it was 92.97 ± 2.54%; in [4] (50 µM) it was 90.66 ± 4.29%; in [4] (100 µM), 70.81 ± 2.18%; in [4] (200 µM) it was 46.79 ± 4.31%. Moreover, the Monophenolase activity in series [4] (400 µM) stood at 23.09 ± 8.35%. In series [4] (at concentrations below 50 µM), the “inhibitory effect on tyrosinase activity” value is recorded as below 10%. Besides, the “selectivity (SI) relative to PYR” value in the series on T. gondii RH-GFP (SI of compound vs SI of PYR) was 11 fold. The “selectivity (SI) relative to SDZ” value in the series on T. gondii RH-GFP (SI of compound vs SI of SDZ) was 160 fold. Moreover, in the series on T. gondii RH-GFP (SI of compound vs SI of TRI), the “selectivity (SI) relative to TRI” value was found to be 4 fold. Moreover, in the series on T. gondii RH-GFP (Toxoplasma gondii, T. gondii RH-GFP in Hs27 cells, 96 h, values above highest tested concentration extrapolated, read-out: IC50Tg), the IC50 was 35.4 µg/mL (≈ 123 µM). Besides, in the series on T. gondii RH-GFP (selectivity index, CC30 (L929)/IC50Tg), the SI turned out to be 70.72. For the same compound, the “parasite invasion: percentage of infected cells” value in series [5] was “did not cause significant reductions in percentage of infected cells”. For the same compound, the BBB permeation classification result in “PAMPA-BBB assay” (CNS+ if Pe > 5.19, CNS− if Pe < 2.07 (× 10^−6 cm·s^−1)) was “centrally active”. For the same compound, the Papp at 180 min, 20 μg/mL in “PAMPA-BBB assay” (pH 7.4, 37 °C, 180 min, read-out: permeability coefficient Pe) was 34.9 ± 2.73 ×10⁻⁶ cm/s. In addition, the viability at 24 h, 10 µg/mL in [6] was 94.2 ± 2.06%. For the same compound, the viability at 24 h, 25 µg/mL in series [6] is 92 ± 3.27%. Besides, the viability at 24 h, 35 µg/mL in series [6] was 87.15 ± 0.55%. In addition, the viability at 24 h, 50 µg/mL in series [6] worked out at 82.1 ± 1.73%. In addition, in series [6], the viability at 24 h, 100 µg/mL is 76.26 ± 0.74%. The “reduction of T98G cell viability” value is reported as around 6% in [7] (10 µg/mL) and around 24% in series [7] (100 µg/mL). Also, in the series with Human Hs27 cells, the “% DNA in comet tail” value is listed as 3.38 ± 0.45%. Further, the “genotoxic effect (DNA damage)” value in the series on Human Hs27 cells is on record as “no induction of DNA damage; also recorded: no genotoxic effect”.

For the compound `Cn1nnc2c(C(N)=O)ncn2c1=O` [Temozolomide, reference compound], in series [6], the viability at 24 h, 10 µg/mL came to 66.6 ± 1.07%; the viability at 24 h, 25 µg/mL is 61.11 ± 0.45%; the viability at 24 h, 35 µg/mL came out at 57.3 ± 2.25%; the viability at 24 h, 50 µg/mL was determined as 55.3 ± 1.81%. Moreover, the viability at 24 h, 100 µg/mL in [6] was 53.95 ± 0.33%. Besides, the “reduction of T98G cell viability” value in [7] (10 µg/mL) is reported as around 33%. The “reduction of T98G cell viability” value in [7] (100 µg/mL) was around 46%.

Turning to `CC(C)(C)CC(C)(C)c1ccc(OCCO)cc1` [Triton-X, reference compound], in [3] (0.1%, positive control), the hemolysis at 30 min, 0.1 % amounted to 99.78 ± 0.34%.

(Values after article PMC9518248, “Inhibition of Toxoplasma gondii by 1,2,4-triazole-based compounds: marked improvement in selectivity relative to the standard therapy pyrimethamine and sulfadiazine” (Journal of Enzyme Inhibition and Medicinal Chemistry, 2022).)
